row,SMILES,melting point
1,Cc1cc2cc(CN3CCCC3)cnc2cc1NC(=O)c1ccc(-c2ccc(F)cc2)c(F)c1,163 to 166 °C
2,O=[N+]([O-])c1cn2c(n1)OC[C@@H](OCc1ncc(Br)cn1)C2,> 290 °C
3,CCOC(=O)C(=CN)C(=O)c1cc(F)c(Cl)c([N+](=O)[O-])c1Cl,113 to 114 °C
4,Cc1cc2c(c(C(O)=S)c1)OCCO2,181 to 183 °C
5,OCC1(CO)CC(Cc2ccc(F)cc2)=NO1,93 to 97 °C
6,[N-]=[N+]=Nc1cccc2cccc(O)c12,65 to 67 °C
7,O=C(O)CSCCCCc1cccc2cncn12,124 to 126 °C
8,CCOc1ccc(C(O)(C(F)(F)F)C(F)(F)Cl)cc1 (centres undefined),84 to 86 °C
9,COC12CC(CCOC(=O)c3cncc(Br)c3)CN(C)C1Cc1cn(C)c3cccc2c13 (centres undefined),187 to 190 °C
10,CC(=O)OC1CSC(Oc2cnccc2-c2cccnc2)C(OC(C)=O)C1OC(C)=O (centres undefined),159 °C
11,COC(=O)C(C)(C)c1ccc(OCCNC(=O)C2Cc3ccccc3N2S(=O)(=O)c2ccc(-c3cc(C(F)(F)F)ccc3Cl)cc2)cc1 (centres undefined),66 to 72 °C
12,CC1CCc2ccc(CC(=O)O)cc2C(=O)C1 (centres undefined),105 to 107 °C
13,CCCc1nc(C(C)=O)c(C(=O)OCC)[nH]1,76 to 78 °C
14,NC(=O)c1cc(NCc2cccc(F)c2)c([N+](=O)[O-])cc1[N+](=O)[O-],175 to 177 °C
15,COc1cc2c(cc1OC)[C@@H](O)[C@H](CN1CCC3(CC1)C(=O)NCN3c1ccccc1)C2 (relative stereo),189 to 190 °C
16,COc1ccnc(C(=O)N[C@H]2COC[C@H](CC3CCCCC3)[C@@H](OCC(C)C)[C@H](C)OC2=O)c1O,89 to 92 °C
17,CC1=C(C(=O)O)C(c2ccc(F)c(Br)c2)C2=C(CCC2=O)N1 (centres undefined),211 to 214 °C
18,CCCCCCCC[C@H]1CC[C@H](C(=O)O)CC1,36 to 37 °C
19,COCC1CN(c2c(F)cc3c(=O)c(C(=O)O)cn([C@@H]4C[C@@H]4F)c3c2OC)CCN1 (some centres undefined),92 to 95 °C
20,CCCCCCc1cc2c(s1)NC(=O)C(C)N=C2c1ccccc1C (centres undefined),173 to 175 °C
21,OC1(CN2CC2)COc2ccccc2OC1,98 to 99.5 °C
22,CCC(CC)c1ccc(Cl)c2nc3n(c12)CCCCN3c1ccc(S(C)=O)cc1C (centres undefined),189 to 190 °C
23,COCCOc1cc2ncc(C#N)c(NC3CCCC3)c2cc1OC,87 to 90 °C
24,COC(=O)c1ccc(N2C(=O)CCC2CN=[N+]=[N-])c([N+](=O)[O-])c1 (centres undefined),68 to 70 °C
25,O=C(NC1CCN(CCC(O)C(=O)C(O)CCN2CCC(NC(=O)c3ccccc3)CC2)CC1)c1ccccc1 (centres undefined),154 to 155 °C
26,COc1cc(OC)nc(C2(OC(C)=O)OC(=O)c3c(Cl)cccc32)n1 (centres undefined),213 to 215 °C

row,SMILES,melting point
1,CC(C)N1CC2(COc3ccc(N)cc3OC2)OC1=O (centres undefined),157 to 159 °C
2,N=C(NO)c1ccc(S(N)(=O)=O)s1,189 °C
3,CN1CCN(C(=O)c2ccc([N+](=O)[O-])cc2[N+](=O)[O-])CC1,130 to 132 °C
4,COc1cc(OC2CCN(S(=O)(=O)CCNC3CC3)CC2)ccc1CC(=O)N1CCN(c2ccccc2C)CC1C(N)=O (centres undefined),69 to 110 °C
5,c1ccc2c(c1)c1c(N3CCCC3)nc(N3CCCC3)nc1n2CCn1ccnc1,181 to 183 °C
6,CCOC(=O)C1=C(C)NC(N)=C(C(=O)OC(C)C)C1c1cccc([N+](=O)[O-])c1 (centres undefined),175 to 176 °C
7,CC(C)[C@](O)(CCc1ccc(O)cc1)CC(=O)O,137 to 140 °C
8,O=c1ccn(C2CC(O)C(CNC(c3ccccc3)(c3ccccc3)c3ccccc3)O2)c(=O)[nH]1 (centres undefined),132 to 134 °C
9,CC(C)COc1c(-c2ccc(S(C)(=O)=O)cc2)cnn(-c2ccc(F)c(F)c2)c1=O,116 to 117 °C
10,CCOP(=O)(Cc1ccc(NC(=O)CCc2conc2-c2ccc(Cl)cc2)cc1)OCC,88 to 90 °C
11,CCOP(=O)(CCN1CCC(N(C)S(=O)(=O)c2ccc(Nc3nccc(Nc4ccc(F)c(F)c4)n3)cc2)CC1)OCC,93 to 96 °C
12,CC(C)(C)c1cc(-c2nnc(NS(C)(=O)=O)s2)cc(C(C)(C)C)c1O,293 to 294 °C
13,c1cnc(NCCc2c[nH]cn2)cn1,200 to 202 °C
14,C=CCOP1(=S)OCc2cc(C)cnc2O1 (centres undefined),79 to 80 °C
15,CCOC(=O)Cc1ccc(CC2(CNS(=O)(=O)c3ccc(Cl)cc3)CCCC2)cc1,117 to 119 °C
16,Cc1onc(-c2ccccc2)c1C(=O)NC1C(=O)N2C1SCC(C)(Cl)C2C(=O)O (centres undefined),210 °C
17,O=C(CO)Nc1ccccc1-c1nnc(C(c2ccc(Cl)cc2)c2c(Cl)cc(-n3ncc(=O)[nH]c3=O)cc2Cl)o1 (centres undefined),235 °C
18,NC(C(=O)OC1CCCCC1)C(=O)OC1CCCCC1,46 to 47 °C
19,CS(=O)(=O)OCCOc1cc([N+](=O)[O-])ccc1N,132 to 135 °C
20,COc1ccc(CNC(=O)C(=O)NCCc2cccs2)c(OC)c1,146 to 147 °C
21,Sc1nccn1Cc1ccsc1,130 to 131 °C
22,CSc1nnc(CNc2c(C)csc2C)n1C,92 to 96 °C
23,CN1CCc2nc(C(=O)N[C@@H]3C[C@@H](C(=O)O)CC[C@H]3NC(=O)c3cc4cc(Cl)ccc4[nH]3)sc2C1,234 to 236 °C
24,COc1cc(CCNC(=O)C(F)(F)F)ccc1[N+](=O)[O-],104 °C
25,NC(=O)CN1CC[C@H](OCc2cc(C(F)(F)F)cc(C(F)(F)F)c2)[C@H](c2ccccc2)C1 (relative stereo),123 to 125 °C
26,COC(=O)N1CCC(=NO)c2cc(Cl)ccc21,162 to 163 °C

# The next lines start with the values.
row,melting point,SMILES
1,113 to 115 °C,COc1ccc(-c2ccc(N(C)C)cc2)cc1C=O
2,111 to 112 °C,CC(OCc1ccc2ccccc2c1)(C(N)=O)C(F)(F)F (centres undefined)
3,215 to 220 °C,O=C1c2ccccc2C(=O)N1Cc1cc2ccccc2[nH]1
4,200 to 210 °C,COc1ccc(Sc2nc(C)n(Cc3cc4c(cc3Cl)OCO4)c2C(=O)O)cc1
5,89 to 90 °C,Cc1nn2ccccc2c1C(=O)c1cccnc1
6,114 to 115 °C,COC(=O)C1Oc2ccc(Cl)cc2C(c2ccccc2)(C(C)C)O1 (centres undefined)
7,99 to 102 °C,O=C(OCc1ccccc1)c1cc2cc(OCc3ccccc3)ccc2cc1OCc1ccccc1
8,163 to 165 °C,Cc1ccccc1-c1c(NC(=O)Nc2ccc(F)cc2F)c(=O)n(C)c2ccc(Cl)cc12
9,198 °C,Clc1ccc2nc(-c3ccccc3)n(CCCN3CCN(C(c4ccccc4)c4ccccc4)CC3)c2c1
10,91 to 92 °C,Cc1cccc(C=Cc2ccccc2C#N)n1
11,119 to 121 °C,COC(=O)c1ccc2c(c1)C=CC(=C(Cl)Cl)CO2
12,90 °C,CN1CCC(c2c[nH]c3ccc(C(=O)c4ccccn4)cc23)CC1
13,189 to 190 °C,N#Cc1cc(C(=O)Nc2cncnc2Cl)ccc1Cl
14,198 to 199 °C,NNC(=O)c1ccc2occ(-c3cc(F)ccc3F)c2c1
15,70 °C,C=C(C)C(=O)Oc1cccc(-c2cccc(OC(=O)C(=C)C)c2)c1
16,180 °C,Cc1cc(C#N)c(C)c(C(=O)Nc2ccn(C)n2)n1
17,158 to 159 °C,OCc1nnc(-c2ccc3occ(-c4cccc(OC(F)(F)F)c4)c3c2)o1
18,242 to 243 °C,CC(C)c1ccc2ncn(/C=C/C(=O)O)c(=O)c2c1
19,176 to 177 °C,CC(c1ccc(-c2ccccc2)c(F)c1)c1csc(NC(=S)Nc2ccccc2)n1 (centres undefined)
20,164 °C,CCc1cc(C#N)cc(C(=O)Nc2ccn(C)n2)n1
21,104 to 105 °C,CCC1(CCCCCl)C(=O)Nc2ccccc21 (centres undefined)
22,115 to 117 °C,CCOC(=O)c1nn(-c2ccc(C)cc2)cc1-c1ccccc1
23,139 °C,O=C1CN[C@@H](c2ccccc2)[C@@H](c2ccccc2)O1
24,97 to 103 °C,COC(=O)c1ccc2nc(C)[nH]c2c1C(=O)OC

row,melting point,SMILES
1,159 °C,CC(C)N(Cc1ccccc1)S(=O)(=O)N[C@@H](Cc1ccc(NC(=O)c2c(Cl)cccc2Cl)cc1)C(=O)O
2,152 to 154 °C,C[C@H]1C(=O)Nc2c(N)cc(Cl)cc2N1C(=O)OCc1ccccc1
3,162 °C,COc1cc(C)nc(NC(=O)NS(=O)(=O)c2ccccc2OC(F)(F)F)n1
4,150 to 152 °C,CCC1c2cccn2-c2ccc(F)cc2N1S(=O)(=O)c1ccc(O)cc1 (centres undefined)
5,202 °C,COc1ccc2oc3ccccc3c2c1C(=O)Nc1cc(Cl)ccc1Cl
6,182 to 184 °C,CC(C)(C)n1c(=O)c2c(-c3nc(C4CC4)no3)ncn2c2ccccc21
7,172 to 174 °C,Cc1ccc(C(=O)Nc2ccc(-c3ccccc3)c(C(F)(F)F)c2)cc1Nc1nccc(-c2cccnc2)n1
8,75 to 79 °C,COCOc1c(OC)cc(C(=O)C(=O)O)c2cccc(Cc3ccccc3)c12
9,111 to 114 °C,Fc1ccccc1-c1ccc2cccnc2n1
10,> 300 °C,O=C(O)c1ccc(OCc2ccc3ccccc3n2)cc1
11,191 to 194 °C,CNc1nc2ccc(-c3nc4cc(C)ccn4c3C)cc2s1
12,192 to 194 °C,COc1cn(-c2ccc(N3CCC(F)(F)CC3)cc2F)nc(-c2ccnn2-c2ccccc2)c1=O
13,157 to 159 °C,COCCOc1ccccc1-c1cc2[nH]c3ccc(OCc4ccccc4)cc3c2c2c1C(=O)NC2=O
14,268 °C,O=c1[nH]c2ccc3ccccc3c2n(CCc2ccccc2)c1=O
15,88 to 90 °C,CC(=O)CSc1nc2ccccc2cc1-c1ccccc1
16,170 to 173 °C,O=C1C=CCC(c2ccccc2)(c2ccccc2)O1
17,138 to 140 °C,CN(O)C(=O)C=Cc1ccc2ccccc2c1
18,164 to 167 °C,CC1=C(c2ccccc2)C(=O)N(C(C)(C)c2cc(Cl)c(F)c(Cl)c2)C1
19,176 to 179 °C,CSc1nc(SC)nc(-n2c(C)nc3ccccc32)n1
20,172 to 174 °C,O=C1C(=O)c2ccccc2C2=C1SCC1(CCN(c3cc(Cl)ncn3)CC1)O2
21,122 to 124 °C,CC(C)c1nc(-c2ccccc2Cc2ccccc2)cc(-c2ccc(F)cc2)c1CO
22,163 °C,Fc1cccc(F)c1Cn1c(-c2ccccc2)nc2ccccc21
23,193 °C,COc1ccc2c(CC(=O)O)c(C(=O)c3ccc(Cl)cc3)[nH]c2c1
